The target in assay [1] is cloned human P2Y1 receptors (Homo sapiens (Human), UniProt P47900). Briefly: Binding Assay B: Scintillation Proximity Assay (SPA) for P2Y1 binding. Particulars: SPA, [33P] 2MeS-ADP displacement; read-out: P2Y1 Ki (nM) using binding assay B. The protocol: A SPA membrane binding assay was used to identify inhibitors of [^33P] […] Binding reactions were performed in 384-well OptiPlates (PerkinElmer Life Sciences, Cat #6007299) in a volume of 50 μL containing ˜15 fmol of P2Y1 receptor (1.7 μg of total protein), 0.3 nM [^33P] […] Reactions were allowed to proceed to completion at room temperature for 1 hour followed by centrifugation of the plate for 5 min. About 40 μL of the aqueous solution was aspirated. Plates were sealed and the [^33P]
For orientation: In a scintillation proximity assay essentially only radioactivity close to the scintillant gives light.

The subject of assay [2] is human platelet rich plasma (PRP). Briefly: ADP induced platelet aggregation assay. Particulars: Homo sapiens, Platelet, read-out: PA IC50 (μM) @ 10 μM ADP, platelet aggregation induced by 10 μM ADP, human PRP.

Chain of cloned human P2Y1 receptors (P47900 whole entry): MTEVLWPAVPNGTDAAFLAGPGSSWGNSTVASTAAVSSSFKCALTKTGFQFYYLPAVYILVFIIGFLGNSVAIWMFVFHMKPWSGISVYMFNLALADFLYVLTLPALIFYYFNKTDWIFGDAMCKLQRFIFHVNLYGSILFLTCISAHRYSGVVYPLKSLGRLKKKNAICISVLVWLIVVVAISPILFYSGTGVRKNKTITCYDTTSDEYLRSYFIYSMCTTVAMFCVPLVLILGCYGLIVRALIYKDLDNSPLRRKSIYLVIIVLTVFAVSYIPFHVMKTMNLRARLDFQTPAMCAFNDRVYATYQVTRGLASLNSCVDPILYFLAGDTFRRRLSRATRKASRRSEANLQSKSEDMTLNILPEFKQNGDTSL

As for `CC(C)(C)CN1CCC2(CC1)CN(c1ccccc1NC(=O)Nc1ccc(OC(F)(F)F)cc1)c1c2ccc(F)c1O` [Example 14, 1-(2-(6-Fluoro-7-hydroxy-1′-neopentylspiro[indoline-3,4′-piperidine]-1-yl)phenyl)-3-(4-(trifluoromethoxy)phenyl)urea], the Ki in assay [1] turned out to be 12.8 nM. Moreover, the IC50 in assay [2] turned out to be 2.1 µM.

`CC(C)(C)CN1CCC2(CC1)CN(c1ccccc1NC(=O)Nc1ccc(F)c(F)c1)c1c(O)ccc(C(F)(F)F)c12` [Example 15, 1-(3,4-Difluorophenyl)-3-(2-(7-hydroxy-1′-neopentyl-4-(trifluoromethyl)spiro[indoline-3,4′-piperidine]-1-yl)phenyl)urea]: the Ki in assay [1] amounted to 5.1 nM. The IC50 in assay [2] is 0.5 µM.

On to `CCSc1nsc(NC(=O)Nc2ccccc2N2CC3(CCN(CC(C)(C)C)CC3)c3c(C(F)(F)F)ccc(O)c32)n1` [Example 16, 1-(3-(Ethylthio)-1,2,4-thiadiazol-5-yl)-3-(2-(7-hydroxy-1′-neopentyl-4-(trifluoromethyl)spiro[indoline-3,4′-piperidine]-1-yl)phenyl)urea], for which the Ki in assay [1] came to 8.1 nM. In addition, in assay [2], the IC50 is 0.3 µM.

Consider `CC(C)(C)CN1CCC2(CC1)CN(c1ccccc1NC(=O)Nc1ccc(OC(F)F)cc1)c1c(O)ccc(C(F)(F)F)c12` [Example 17, 1-(4-(Difluoromethoxy)phenyl)-3-(2-(7-hydroxy-1′-neopentyl-4-(trifluoromethyl)spiro[indoline-3,4′-piperidine]-1-yl)phenyl)urea], for which the Ki in assay [1] stood at 9 nM. Moreover, the IC50 in assay [2] worked out at 0.4 µM.

As for `CC(C)(C)CN1CCC2(CC1)CN(c1ccccc1NC(=O)Nc1csc(Cl)n1)c1c(O)ccc(C(F)(F)F)c12` [Example 18, 1-(2-Chlorothiazol-4-yl)-3-(2-(7-hydroxy-1′-neopentyl-4-(trifluoromethyl)spiro[indoline-3,4′-piperidine]-1-yl)phenyl)urea], the Ki in assay [1] worked out at 6.2 nM. Besides, the IC50 in assay [2] was determined as 0.1 µM.

Consider `CC(C)c1nsc(NC(=O)Nc2ccccc2N2CC3(CCN(CC(C)(C)C)CC3)c3c(C(F)(F)F)ccc(O)c32)n1` [Example 19, 1-(2-(7-Hydroxy-1′-neopentyl-4-(trifluoromethyl)spiro[indoline-3,4′-piperidine]-1-yl)phenyl)-3-(3-isopropyl-1,2,4-thiadiazol-5-yl)urea], for which the Ki in assay [1] stood at 7.5 nM. The IC50 in assay [2] was determined as 0.2 µM.

With `CC(C)(C)CN1CCC2(CC1)CN(c1ccccc1NC(=O)Nc1ccc(F)cc1F)c1c(O)ccc(C(F)(F)F)c12` [Example 20, 1-(2,4-Difluorophenyl)-3-(2-(7-hydroxy-1′-neopentyl-4-(trifluoromethyl)spiro[indoline-3,4′-piperidine]-1-yl)phenyl)urea], the Ki in assay [1] was 3.2 nM. In assay [2], the IC50 was found to be 0.2 µM.

Consider `CC(C)(C)CN1CCC2(CC1)CN(c1ccccc1NC(=O)Nc1nc3ccc(Cl)cc3s1)c1c(O)ccc(C(F)(F)F)c12` [Example 21, 1-(6-Chlorobenzo[d]thiazol-2-yl)-3-(2-(7-hydroxy-1′-neopentyl-4-(trifluoromethyl)spiro[indoline-3,4′-piperidine]-1-yl)phenyl)urea], for which, in assay [1], the Ki came to 30.9 nM. Besides, the IC50 in assay [2] is 0.4 µM.

With `CC(C)(C)CN1CCC2(CC1)CN(c1ccccc1NC(=O)Nc1ccc(C(F)(F)F)cc1)c1c(O)ccc(C(F)(F)F)c12` [Example 22, 1-(2-(7-Hydorxy-1′-neopentyl-4-(trifluoromethyl)spiro[indoline-3,4′-piperidine]-1-yl)phenyl)-3-(4-(trifluoromethyl)phenyl)urea], in assay [1], the inhibition constant (Ki) came out at 4.4 nM. In addition, the IC50 in assay [2] came to 0.2 µM.

On to `CC(C)(C)CN1CCC2(CC1)CN(c1ccccc1NC(=O)Nc1ccc(C(F)(F)F)nc1)c1c(O)ccc(C(F)(F)F)c12` [Example 23, 1-(2-(7-Hydroxy-1′-neopentyl-4-(trifluoromethyl)spiro[indoline-3,4′-piperidine]-1-yl)phenyl)-3-(6-(trifluoromethyl)pyridin-3-yl)urea], for which, in assay [1], the inhibitory constant (Ki) was determined as 8 nM. In addition, the IC50 in assay [2] turned out to be 1.1 µM.

As to `CC(C)(C)CN1CCC(NC(=O)Nc2ccccc2N2CC3(CCN(CC(C)(C)C)CC3)c3c(C(F)(F)F)ccc(O)c32)CC1` [Example 24, 1-(2-(7-Hydroxy-1′-neopentyl-4-(trifluoromethyl)spiro[indoline-3,4′-piperidine]-1-yl)phenyl)-3-(1-neopentylpiperidin-4-yl)urea], the Ki in assay [1] worked out at 14.8 nM. Moreover, in assay [2], the IC50 is 0.4 µM.

With `Cc1nc(NC(=O)Nc2ccccc2N2CC3(CCN(CC(C)(C)C)CC3)c3c(C(F)(F)F)ccc(O)c32)cs1` [Example 25, 1-(2-(7-Hydroxy-1′-neopentyl-4-(trifluoromethyl)spiro[indoline-3,4′-piperidine]-1-yl)phenyl)-3-(2-methylthiazol-4-yl)urea], in assay [1], the Ki amounted to 4.9 nM. Further, in assay [2], the IC50 came to 0.1 µM.

On to `CC(C)(C)CN1CCC2(CC1)CN(c1ccccc1NC(=O)Nc1csc(Cl)c1)c1c(O)ccc(C(F)(F)F)c12` [Example 26, 1-(5-Chlorothiophen-3-yl)-3-(2-(7-hydroxy-1′-neopentyl-4-(trifluoromethyl)spiro[indoline-3,4′-piperidine]-1-yl)phenyl)urea], for which the Ki in assay [1] amounted to 7.3 nM. For the same molecule, the IC50 in assay [2] is 0.2 µM.

`CC(C)(C)CN1CCC2(CC1)CN(c1ccccc1NC(=O)NC1CCC(C(C)(C)C)CC1)c1c(O)ccc(C(F)(F)F)c12` (stereo not drawn) [Example 27, 1-(4-tert-Butylcyclohexyl)-3-(2-(7-hydroxy-1′-neopentyl-4-(trifluoromethyl)spiro[indoline-3,4′-piperidine]-1-yl)phenyl)urea]: the Ki in assay [1] came to 9.6 nM. The half-maximal inhibitory concentration (IC50) in assay [2] was 0.7 µM.

In the case of `CC(C)c1nc(NC(=O)Nc2ccccc2N2CC3(CCN(CC(C)(C)C)CC3)c3c(C(F)(F)F)ccc(O)c32)cs1` [Example 28, 1-(2-(7-Hydroxy-1′-neopentyl-4-(trifluoromethyl)spiro[indoline-3,4′-piperidine]-1-yl)phenyl)-3-(2-isopropylthiazol-4-yl)urea], the Ki in assay [1] stood at 6.6 nM. In assay [2], the IC50 was 0.8 µM.

As for `CC(C)(C)CN1CCC2(CC1)CN(c1ccccc1NC(=O)Nc1nccs1)c1c(O)ccc(C(F)(F)F)c12` [Example 29, 1-(2-(7-Hydroxy-1′-neopentyl-4-(trifluoromethyl)spiro[indoline-3,4′-piperidine]-1-yl)phenyl)-3-(thiazol-2-yl)urea], in assay [1], the inhibition constant Ki came to 6.4 nM. Besides, the IC50 in assay [2] worked out at 0.4 µM.

For `CC(C)CN1CCC2(CC1)CN(c1ccccc1NC(=O)Nc1nc3ccc(Cl)cc3s1)c1c(O)ccc(C(F)(F)F)c12` [Example 30, 1-(6-Chlorobenzo[d]thiazol-2-yl)-3-(2-(7-hydroxy-1′-isobutyl-4-(trifluoromethyl)spiro[indoline-3,4′-piperidine]-1-yl)phenyl)urea], the Ki in assay [1] is 14.5 nM. The IC50 in assay [2] stood at 0.1 µM.

As for `CC(C)CN1CCC2(CC1)CN(c1ccccc1NC(=O)Nc1nc3ccc(F)cc3s1)c1c(O)ccc(C(F)(F)F)c12` [Example 31, 1-(6-Fluorobenzo[d]thiazol-2-yl)-3-(2-(7-hydroxy-1′-isobutyl-4-(trifluoromethyl)spiro[indoline-3,4′-piperidine]-1-yl)phenyl)urea], the Ki in assay [1] was 16.4 nM. Further, the IC50 in assay [2] turned out to be 0.1 µM.

`CC(C)(C)CN1CCC2(CC1)CN(c1ccccc1NC(=O)Nc1nc3ccc(F)cc3s1)c1c(O)ccc(F)c12` [Example 32, 1-(2-(4-Fluoro-7-hydroxy-1′-neopentylspiro[indoline-3,4′-piperidine]-1-yl)phenyl)-3-(6-fluorobenzo[d]thiazol-2-yl)urea]: the Ki in assay [1] worked out at 7.4 nM. For the same molecule, the IC50 in assay [2] was 0.3 µM.

As to `COc1ccc2nc(NC(=O)Nc3ccccc3N3CC4(CCN(CC(C)(C)C)CC4)c4c(F)ccc(O)c43)sc2c1` [Example 36, 1-(2-(4-Fluoro-7-hydroxy-1′-neopentylspiro[indoline-3,4′-piperidine]-1-yl)phenyl)-3-(6-methoxybenzo[d]thiazol-2-yl)urea], in assay [1], the Ki was 7.9 nM. Besides, the IC50 in assay [2] was 0.9 µM.

`CC(C)(C)CN1CCC2(CC1)CN(c1ccccc1NC(=O)Nc1ccc(C(F)(F)F)cc1)c1c(O)ccc(F)c12` [Example 37, 1-(2-(4-Fluoro-7-hydroxy-1′-neopentylspiro[indoline-3,4′-piperidine]-1-yl)phenyl)-3-(4-(trifluoromethyl)phenyl)urea]: the Ki in assay [1] is 7.2 nM. Besides, in assay [2], the IC50 was determined as 1 µM.

As for `CC(C)(C)CN1CCC2(CC1)CN(c1ccccc1NC(=O)Nc1nc3ccc(Cl)cc3s1)c1c(O)ccc(Cl)c12` [Example 38, 1-(2-(4-Chloro-7-hydroxy-1′-neopentylspiro[indoline-3,4′-piperidine]-1-yl)phenyl)-3-(6-chlorobenzo[d]thiazol-2-yl)urea], the inhibition constant Ki in assay [1] worked out at 10 nM. Also, the IC50 in assay [2] was found to be 0.4 µM.

Regarding `CC(C)(C)CN1CCC2(CC1)CN(c1ccccc1NC(=O)Nc1nc3ccc(F)cc3s1)c1c(O)ccc(Cl)c12` [Example 39, 1-(2-(4-Chloro-7-hydroxy-1′-neopentylspiro[indoline-3,4′-piperidine]-1-yl)phenyl)-3-(6-fluorobenzo[d]thiazol-2-yl)urea], in assay [1], the Ki amounted to 3.8 nM. In addition, the IC50 in assay [2] worked out at 0.2 µM.

Regarding `Cc1ccc2nc(NC(=O)Nc3ccccc3N3CC4(CCN(CC(C)(C)C)CC4)c4c(Cl)ccc(O)c43)sc2c1` [Example 40, 1-(2-(4-Chloro-7-hydroxy-1′-neopentylspiro[indoline-3,4′-piperidine]-1-yl)phenyl)-3-(6-methylbenzo[d]thiazol-2-yl)urea], in assay [1], the Ki was 5.6 nM. Besides, the IC50 in assay [2] worked out at 0.5 µM.

The Ki is the equilibrium dissociation constant of an inhibitor or competing ligand from its target. The term IC50 denotes the concentration at which inhibition is half-maximal.

The values above are taken from patent US9428504B2, “7-hydroxy-spiropipiperidine indolinyl antagonists of P2Y1 receptor” (BRISTOL-MYERS SQUIBB COMPANY, priority 2012, dated 2016).
